# Test results published in patent publication US20250388605A1, “HETEROBIFUNCTIONAL COMPOUNDS AND METHODS OF TREATING DISEASE” (Halda Therapeutics OpCo, Inc., priority 2022, published 2025).
# Legend:
# BRD4-BD2 = target: T1, BRD4-BD2 (Homo sapiens, UniProt O60885); test: Binding affinity to BRD4-BD2 (bromoKdELECT assay); conditions: 11-point 3-fold dilution series
# T1 construct: made in house; host or cells: T7 phage grown in an E. coli host derived from the BL21 strain
# Method: Compounds were tested using a bromoKdELECT assay. T7 phage strains displaying bromodomains were grown in parallel in 24-well blocks in an E. coli host derived from the BL21 strain. E. coli were grown to log-phase and infected with T7 phage from a frozen stock (multiplicity of infection=0.4) and incubated with shaking at 32° C. until lysis (90-150 minutes). The lysates were centrifuged (5,000×g) and filtered ([…]) to remove cell debris. Streptavidin-coated magnetic beads were treated with biotinylated small molecule or acetylated peptide ligands for 30 minutes at room temperature to generate affinity resins for bromodomain assays. The liganded beads were blocked with excess biotin and washed with blocking buffer (SeaBlock (Pierce), 1% BSA, 0.05% Tween 20, 1 mM DTT) to remove unbound ligand and to reduce nonspecific phage binding. Binding reactions were assembled by combining bromodomains, liganded affinity beads, and test compounds in 1× binding buffer (17% SeaBlock, 0.33×PBS, 0.04% Tween 20, 0.02% BSA, 0.004% Sodium azide, 7.4 mM DTT). Test compounds were prepared as 1000× stocks in 100% DMSO. Kds were determined using an 11-point 3-fold compound dilution series with one DMSO control point. All compounds for Kd measurements are distributed by acoustic transfer (non-contact dispensing) in 100% DMSO. The compounds were then diluted directly into the assays such that the final concentration of DMSO was 0.09%. All reactions performed in polypropylene 384-well plates. Each was a final volume of 0.02 ml. The assay plates were incubated at room temperature with shaking for 1 hour and the affinity beads were washed with wash buffer (1×PBS, 0.05% Tween 20). The beads were then resuspended in elution buffer (1×PBS, 0.05% Tween 20, 2 μM non-biotinylated affinity ligand) and incubated at room temperature with shaking for 30 minutes. The bromodomain concentration in the eluates was measured by qPCR.
# T47D cells = test: Cellular Growth Inhibition Assay for T47D Cells (CellTiter-Glo); format: cell-based, human; conditions: 72 hours
# Procedure, shortened: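 GI50 values derive from four-parameter regression of CellTiter-Glo 2.0 luminescence, using zero luminescence as baseline. Human breast cancer T47D cells (3000/well; DMEM, 10% FBS, 0.2 units/mL insulin) were exposed for 72 h to compound dilutions at 0.5% DMSO, with dosing starting 24 h after seeding.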
Compound,Kd (BRD4-BD2) [nM],GI50 (T47D cells; Homo sapiens) [nM],GI50 (T47D cells) [nM]
Cn1cc(-c2ccccc2Oc2cccc(OCCOC3CCN(c4ncc(C(=O)N[C@H]5C(C)(C)[C@H](Oc6ccc(C#N)c(Cl)c6)C5(C)C)cn4)CC3)c2)c2ccn(C)c2c1=O [Compound I-137],> 2500,< 500,
"CC(C)c1ccc(Oc2cccc(OCCN3CCN(c4ncc(C(=O)NC5C(C)(C)C(Oc6ccc(C#N)c(Cl)c6)C5(C)C)cn4)CC3)c2)c(-c2cn(C)c(=O)c3[nH]ccc23)c1 (stereo not shown) [Compound I-107, N-[3-(3-chloro-4-cyano-phenoxy)-2,2,4,4-tetramethyl-cyclobutyl]-2-[4-[2-[3-[4-isopropyl-2-(6-methyl-7-oxo-1H-pyrrolo[2,3-c]pyridin-4-yl)phenoxy]phenoxy]ethyl]piperazin-1-yl]pyrimidine-5-carboxamide]",50 to 500,< 500,
Cn1cc(-c2cc(C(C)(C)O)ccc2Oc2cccc(CCOC3CCN(c4ncc(C(=O)N[C@H]5C(C)(C)[C@H](Oc6ccc(C#N)c(Cl)c6)C5(C)C)cn4)CC3)c2)c2cc[nH]c2c1=O [Compound I-193],< 50,,< 500
CCS(=O)(=O)Nc1ccc(Oc2cccc(N3CC(N4CCN(c5ncc(C(=O)N[C@H]6C(C)(C)[C@H](Oc7ccc(C#N)c(Cl)c7)C6(C)C)cn5)CC4)C3)c2)c(-c2cn(C)c(=O)c3[nH]ccc23)c1 [Compound I-75],50 to 500,< 500,
"CCS(=O)(=O)c1ccc(OC(CCCCN2CCN(c3ncc(C(=O)NC4C(C)(C)C(Oc5ccc(C#N)c(Cl)c5)C4(C)C)cn3)CC2)C2CC2)c(-c2cn(C)c(=O)c3[nH]ccc23)c1 (stereo not shown) [Compound I-223, N-[3-(3-chloro-4-cyano-phenoxy)-2,2,4,4-tetramethyl-cyclobutyl]-2-[4-[5-cyclopropyl-5-[4-ethylsulfonyl-2-(6-methyl-7-oxo-1H-pyrrolo[2,3-c]pyridin-4-yl)phenoxy]pentyl]piperazin-1-yl]pyrimidine-5-carboxamide]",< 50,< 500,
CCS(=O)(=O)Nc1ccc(Oc2cccc(NCCOC3CCN(c4ncc(C(=O)N[C@H]5C(C)(C)[C@H](Oc6ccc(C#N)c(Cl)c6)C5(C)C)cn4)CC3)c2)c(-c2cn(C)c(=O)c3[nH]ccc23)c1 [Compound I-84],< 50,< 500,
"CN(c1ccc(Oc2cccc(N3CC(N4CCN(c5ncc(C(=O)N[C@H]6C(C)(C)[C@H](Oc7ccc(C#N)c(Cl)c7)C6(C)C)cn5)CC4)C3)c2)c(-c2cn(C)c(=O)c3[nH]ccc23)c1)S(=O)(=O)C1CC1 [Compound I-88, N-((1r, 3r)-3-(3-chloro-4-cyanophenoxy)-2,2,4,4-tetramethylcyclobutyl)-2-(4-(1-(3-(2-(6-methyl-7-oxo-6,7-dihydro-1H-pyrrolo[2,3-c]pyridin-4-yl)-4-(N-methylcyclopropanesulfonamido)phenoxy)phenyl)azetidin-3-yl)piperazin-1-yl)pyrimidine-5-carboxamide]",50 to 500,500 to 1500,
Cn1cc(-c2cc(C(C)(C)O)ccc2Oc2cccc(OCCN3CCN(c4ncc(C(=O)N[C@H]5C(C)(C)[C@H](Oc6ccc(C#N)c(Cl)c6)C5(C)C)cn4)CC3)c2F)c2cc[nH]c2c1=O [Compound I-99],< 50,500 to 1500,
CCS(=O)(=O)Nc1ccc(Oc2cccc(OCCOCCOCCOC3CCN(c4ncc(C(=O)N[C@H]5C(C)(C)[C@H](Oc6ccc(C#N)c(Cl)c6)C5(C)C)cn4)CC3)c2)c(-c2cn(C)c(=O)c3[nH]ccc23)c1 [Compound I-7],< 50,< 500,
CN(c1ccc(Oc2ccc(C(C)(C)O)cc2-c2cn(C)c(=O)c3[nH]ccc23)cc1)C1CCN(c2ncc(C(=O)N[C@H]3C(C)(C)[C@H](Oc4ccc(C#N)c(Cl)c4)C3(C)C)cn2)CC1 [Compound I-197],< 50,< 500,
CCS(=O)(=O)Nc1ccc(Oc2cccc(OCCOCCOCCOCCOCCN(C)c3ncc(C(=O)N[C@H]4C(C)(C)[C@H](Oc5ccc(C#N)c(Cl)c5)C4(C)C)cn3)c2)c(-c2cn(C)c(=O)c3[nH]ccc23)c1 [Compound I-3],< 50,,
CN(c1ccc(Oc2cccc(N3CC(N4CCN(c5ncc(C(=O)N[C@H]6C(C)(C)[C@H](Oc7ccc(C#N)c(Cl)c7)C6(C)C)cn5)CC4)C3)c2F)c(-c2cn(C)c(=O)c3[nH]ccc23)c1)S(=O)(=O)C1CC1 [Compound I-91],< 50,500 to 1500,
Cn1cc(-c2cc(C(C)(C)O)ccc2Oc2ccc(N3CC(CN4CC5CC4CN5c4ncc(C(=O)N[C@H]5C(C)(C)[C@H](Oc6ccc(C#N)c(Cl)c6)C5(C)C)cn4)C3)cc2)c2cc[nH]c2c1=O (stereo partly shown) [Compound I-228],< 50,< 500,
"CCS(=O)(=O)Nc1ccc(Oc2cccc(OCCOC3CCN(c4ncc(C(=O)N[C@H]5C(C)(C)[C@H](Oc6ccc(C#N)c(Cl)c6)C5(C)C)cn4)CC3)n2)c(-c2cn(C)c(=O)c3[nH]ccc23)c1 [Compound I-47, N-((1r, 3r)-3-(3-chloro-4-cyanophenoxy)-2,2,4,4-tetra-methylcyclobutyl)-2-(4-(2-((6-(4-(ethylsulfonamido)-2-(6-methyl-7-oxo-6,7-dihydro-1H-pyrrolo[2,3-c]pyridin-4-yl)phenoxy)pyridin-2-yl)oxy)ethoxy)piperidin-1-yl)pyrimidine-5-carboxamide]",< 50,,
CCS(=O)(=O)Nc1ccc(Oc2cccc(OCCOCCOCCOCCOCCOC3CCN(c4ncc(C(=O)N[C@H]5C(C)(C)[C@H](Oc6ccc(C#N)c(Cl)c6)C5(C)C)cn4)CC3)c2)c(-c2cn(C)c(=O)c3[nH]ccc23)c1 [Compound I-8],< 50,,
"CCS(=O)(=O)Nc1ccc(Oc2cccc(OCCN(C)c3ncc(C(=O)N[C@H]4C(C)(C)[C@H](Oc5ccc(C#N)c(Cl)c5)C4(C)C)cn3)c2)c(-c2cn(C)c(=O)c3[nH]ccc23)c1 [Compound I-1, N-((1r, 3r)-3-(3-chloro-4-cyanophenoxy)-2,2,4,4-tetramethylcyclobutyl)-2-((2-(3-(4-(ethylsulfonamido)-2-(6-methyl-7-oxo-6,7-dihydro-1H-pyrrolo[2,3-c]pyridin-4-yl)phenoxy)phenoxy)ethyl)(methyl)amino)pyrimidine-5-carboxamide]",< 50,,
CCS(=O)(=O)Nc1ccc(Oc2cccc(OCCOC3CCN(c4ccc(C(=O)N[C@H]5C(C)(C)[C@H](Oc6ccc(C#N)c(Cl)c6)C5(C)C)nn4)CC3)c2)c(-c2cn(C)c(=O)c3[nH]ccc23)c1 [Compound I-11],< 50,,
CCS(=O)(=O)Nc1ccc(Oc2cccc(N(C)C3CN(CC4CCN(c5ncc(C(=O)NC6C(C)(C)C(Oc7ccc(C#N)c(Cl)c7)C6(C)C)cn5)CC4)C3)c2)c(-c2cn(C)c(=O)c3[nH]ccc23)c1 (stereo not shown) [Compound I-39],< 50,,
CCS(=O)(=O)Nc1ccc(Oc2cccc(OCCOCCOC3CCN(c4ncc(C(=O)N[C@H]5C(C)(C)[C@H](Oc6ccc(C#N)c(Cl)c6)C5(C)C)cn4)CC3)c2)c(-c2cn(C)c(=O)c3[nH]ccc23)c1 [Compound I-13],< 50,,
CCS(=O)(=O)c1ccc(Oc2cccc(OCCOC3CCN(c4ccc(C(=O)N[C@H]5C(C)(C)[C@H](Oc6ccc(C#N)c(Cl)c6)C5(C)C)cn4)CC3)c2F)c(-c2cn(C)c(=O)c3[nH]ccc23)c1 [Compound I-185],< 50,,
CCS(=O)(=O)c1ccc(Oc2ccc(OCC3CCN(c4ncc5c(n4)CN([C@H]4C(C)(C)[C@H](Cc6ccc(C#N)c(Cl)c6)C4(C)C)C5=O)CC3)cc2)c(-c2cn(C)c(=O)c3[nH]ccc23)c1 [Compound I-220],,< 500,
Cn1cc(-c2cc(C(C)(C)O)ccc2Oc2ccc(N3CC(CC4CCN(c5ncc(C(=O)N[C@H]6C(C)(C)[C@H](Oc7ccc(C#N)c(Cl)c7)C6(C)C)cn5)CC4)C3)cc2)c2cc[nH]c2c1=O [Compound I-232],,< 500,
